“And” between values parts separate entries of the source, which are not always exact repeats. Equal values may be shown once.
Columns and labels:
[1] = test system: MCF-7, human breast cancer cells; assay: MTT cytotoxicity assay, MCF-7; format: cell-based; conditions: MCF7, 72 h
Experimental: (§1) We examined the cytotoxicity of ISL nitrogenous derivatives against three cancer cell lines (PC-3, MCF-7 and HO-8910) and normal human THP-1 cells using MTT growth inhibition assays. ISL was used as a positive control. […] The IC50 values were all above 100 µM.
(§2) Cytotoxicity was evaluated against four human cell lines (MCF-7 breast cancer, PC-3 prostatic cancer, HO-8910 ovarian cancer, and THP1 normal cells). Briefly, MCF-7, PC-3 and HO-8910 cells were separately plated in 96-well culture plates (1 × 10^5 cells/well). After 24 h incubation, cells were treated with compounds 7–16 (0, 3.13, 6.25, 12.5, 25, 50 and 100 µM) for 72 h. MTT solution (5 mg/mL) was then added to each well. After 4 h incubation, the formazan precipitate was dissolved in […] dimethyl sulfoxide (DMSO), and then the absorbance was measured in an ELISA reader (Thermo Molecular Devices Co., Union City, CA, USA) at 570 nm. The cell viability ratio was calculated by the following formula: Inhibitory ratio (%) = (1 − ODtreated/ODcontrol) × 100%.

[2] = test system: HO-4980, human ovarian cancer cells; assay: MTT cytotoxicity assay, HO-4980 (HO-8910); format: cell-based; conditions: 72 h
Experimental: as §1, §2

[3] = MTT cytotoxicity assay, THP-1 normal cells; format: cell-based; conditions: human, THP-1 cells (called normal cells)
Experimental: as §1, §2

[4] = test system: PC-3, human prostate cancer cells; assay: MTT cytotoxicity assay, PC-3; format: cell-based; conditions: 72 h
Experimental: as §1, §2

[5] = test system: S180 sarcoma cells; assay: Anti-tumor activity in S180 tumor-bearing mice; format: in vivo; conditions: S180 tumor-bearing BALB/c mice
Experimental: (§3) Female BALB/c mice (6–8 weeks old, 25 ± 2 g) were obtained from the Third Affiliated Hospital of Harbin Medical University. S180 sarcoma cells were purchased from the Experimental Animal Center of Peking University Health Science Center (Heilongjiang, China). The animals were housed in polypropylene cages and maintained under controlled conditions of 12 h light/12 h dark photoperiod and 55 ± 5% relative humidity at room temperature (28 ± 2 °C). After fed in our facility for 1 week, 40 mice were induced S180 tumor cells according to Wu et al. with some modification. All mice were subcutaneously implanted with 1 × 10^6 cells/mice on the right flank. After inoculation for 24 h, all animals were randomly divided into one untreated control group, one treated positive control group and two treated experimental groups (each group contained 10 mice).
(§4) Group I (untreated control) received orally the same volume of 0.9% normal saline once per day as the treated groups. Group II (treated positive control) received orally ISL at a dosage of 40 mg/kg body weight once per day. Group III (low dose of ISL derivative 15 treatment) received ISL derivative 15 orally (dissolved in 0.2 mL normal saline) at a dosage of 40 mg/kg body weight once per day. Group IV (high-dose of ISL derivative 15 treatment) received ISL derivative 15 orally (dissolved in 0.2 mL normal saline) at a dosage of 80 mg/kg body weight once per day.

[6] = Body-weight change as toxicity parameter in S180 tumor-bearing mice; format: in vivo; conditions: for BWC (%) body-weight change: S180 tumor-bearing BALB/c mice; for Changes in body weight as parameter for toxicity (in words): ISL derivative 15 at 80 or 40 mg/kg, ISL at 40 mg/kg, S180 tumor-bearing mice
Experimental: For comparison, ISL (40 mg/kg) was analyzed as positive control. Changes in body weight were used as parameter for toxicity.
as §3, §4

Structure (SMILES)	melting point	IC50 [1] [µM]	IC50 [2] [µM]	IC50 [3] [µM]	IC50 [4] [µM]	TIR (%) tumor inhibitory rate ([5]; 40 mg/kg orally once per day) [%]	TW (g) x ± SD (tumor weight) ([5]; 40 mg/kg orally once per day) [g]	TIR (%) tumor inhibitory rate ([5]; 80 mg/kg orally once per day) [%]	TW (g) x ± SD (tumor weight) ([5]; 80 mg/kg orally once per day) [g]	BWC (%) body-weight change ([6]; 40 mg/kg orally once per day)	BWC (%) body-weight change ([6]; 80 mg/kg orally once per day)	Changes in body weight as parameter for toxicity (in words) [6]
CN(C)Cc1c(O)ccc(C(=O)/C=C/c2ccc(O)cc2)c1O [Compound 7, (E)-1-(3-(dimethylaminomethyl)-2,4-dihydroxyphenyl)-3-(4-hydroxyphenyl)prop-2-en-1-one]	> 176 °C	> 100	> 100	> 100	> 100	–	–	–	–	–	–	–
O=C(/C=C/c1ccc(O)cc1)c1ccc(O)c(CN2CCOCC2)c1O [Compound 8, (E)-1-(2,4-dihydroxy-3-(morpholinomethyl)phenyl)-3-(4-hydroxyphenyl)prop-2-en-1-one]	> 180 °C	> 100	96.4	> 100	48.6	–	–	–	–	–	–	–
O=C(/C=C/c1ccc(O)cc1)c1ccc(O)c(CNC2CCCCC2)c1O [Compound 9, (E)-1-(3-(cyclohexylaminomethyl)-2,4-dihydroxyphenyl)-3-(4-hydroxyphenyl)prop-2-en-1-one]	> 168 °C	73.6	> 100	> 100	28.3	–	–	–	–	–	–	–
CC(C)N(Cc1c(O)ccc(C(=O)/C=C/c2ccc(O)cc2)c1O)C(C)C [Compound 10]	> 180 °C	84.6	98.1	> 100	> 100	–	–	–	–	–	–	–
O=C(/C=C/c1ccc(O)cc1)c1ccc(O)c(CN(CCO)CCO)c1O [Compound 15, (E)-1-(3-((bis(2-hydroxyethyl)amino)methyl)-2,4-dihydroxyphenyl)-3-(4-hydroxyphenyl)prop-2-en-1-one]	–	42.9	37.9	> 100	35.1	39.72	0.74 ± 0.618	71.68	0.35 ± 0.442	+12.8%	+7.8%	Loss of body weight was not found
O=C(/C=C/c1ccc(O)cc1)c1ccc(O)cc1O [ISL, isoliquiritigenin]	–	44.1	58.4	> 100	36.9	32.44	0.85 ± 0.369	–	–	−3.0%	–	slight weight loss

Second part, led by results:

melting point	Structure (SMILES)	IC50 [1] [µM]	IC50 [2] [µM]	IC50 [3] [µM]	IC50 [4] [µM]	TIR (%) tumor inhibitory rate ([5]; 40 mg/kg orally once per day) [%]	TW (g) x ± SD (tumor weight) ([5]; 40 mg/kg orally once per day) [g]	TIR (%) tumor inhibitory rate ([5]; 80 mg/kg orally once per day) [%]	TW (g) x ± SD (tumor weight) ([5]; 80 mg/kg orally once per day) [g]	BWC (%) body-weight change ([6]; 40 mg/kg orally once per day)	BWC (%) body-weight change ([6]; 80 mg/kg orally once per day)	Changes in body weight as parameter for toxicity (in words) [6]
> 176 °C	CCN(CC)Cc1c(O)ccc(C(=O)/C=C/c2ccc(O)cc2)c1O [Compound 11, (E)-1-(3-((diethylamino)methyl)-2,4-dihydroxyphenyl)-3-(4-hydroxyphenyl)prop-2-en-1-one]	> 100	97.3	> 100	66	–	–	–	–	–	–	–
> 175 °C	CCC(C)NCc1c(O)ccc(C(=O)/C=C/c2ccc(O)cc2)c1O (stereo not shown) [Compound 12, (E)-1-(3-((sec-butylamino)methyl)-2,4-dihydroxyphenyl)-3-(4-hydroxyphenyl)prop-2-en-1-one]	84.8	> 100	> 100	57.1	–	–	–	–	–	–	–
> 170 °C	CC(C)(C)NCc1c(O)ccc(C(=O)/C=C/c2ccc(O)cc2)c1O [Compound 13, (E)-1-(3-((tert-butylamino)methyl)-2,4-dihydroxyphenyl)-3-(4-hydroxyphenyl)prop-2-en-1-one]	> 100	> 100	> 100	> 100	–	–	–	–	–	–	–
> 180 °C	O=C(C=Cc1ccc(O)cc1)c1ccc(O)c(CNCCO)c1O [Compound 14, 1-(2,4-dihydroxy-3-((2-hydroxyethylamino)methyl)phenyl)-3-(4-hydroxyphenyl)propen-1-one]	66	89	> 100	87.7	–	–	–	–	–	–	–
116.5 to 117.1 °C and 116.5 to 117.4 °C	O=C(/C=C/c1ccc(O)cc1)c1ccc(O)c(CN2CCCC2)c1O [Compound 16]	81.8	74.9	> 100	> 100	–	–	–	–	–	–	–
